One data set addresses Aβ40 (Homo sapiens, UniProt P05067). The data set can be described thus: Aβ40 aggregation, thioflavin T assay. The format is biochemical. The note with it: for inhibition at 20 µM / inhibition at 200 µM: 4 hours 37° C.; for inhibition at 20 µM: FIG. 3A; for inhibition at 200 µM: FIG. 3B; for inhibit Aβ40 accumulation (ThT assay): summary of Experimental example 3. How it is done:
Aβ40 aggregation: The Aβ40 stock was redissloved in DMSO to 10 mg/mL. Each group included 0.5 μL of 10 mg/mL Aβ40 and 4.5 μL of the testing sample diluted with Dulbecco's Phosphate-Buffered Saline (D-PBS). The concentrations of Sample 1 were 10 μM and 100 μM, and the concentrations of Sample 2-8 were 20 μM and 200 μM. The total reaction volume was 5 μL, and each concentration of each sample included 6 groups. After incubating in a 37° C. incubator for 4 hours, 200 μL of thioflavin T working solution (ThT working solution) was added and mixed thoroughly, which the thioflavin T working solution was 10 μM of thioflavin T dissolving in potassium phosphate buffer (PB buffer, pH 6.0). 200 μL of the mixture was placed into a black, clear bottom 96-well plate, and the ThT fluorescence intensity (Ex: 440 nm, Em: 482 nm) was measured to determine the level of Aβ40 aggregation. This experimental example used thioflavin T assay (ThT assay) to evaluate the level of Aβ40 aggregation. Since ThT and Congo red derivatives can form bonds with aggregated form of Aβ protein, the level of Aβ aggregation is higher when the amount of bonded ThT is more. By detecting the variation in the amount of ThT, the change in the level of Aβ aggregation can be estimated. The value of not reacting with any sample (i.e. only containing 0.5 μL of Aβ40 and 4.5 μL of D-PBS, which the final concentration of Aβ40 was 1 mg/mL) was a control and set to 100%, and isoacteoside (IsoA) was used as a positive control. The values of the testing samples were compared to the control and expressed in percentage, and the experiment results are shown in FIGS. 3A-3B. The results shown in FIGS. 3A-3B were mean±standard error of six experimental groups (n=6), and the statistical differences between the control and the testing samples were analyzed by Dunnett's multiple comparison test, which “*” represented p<0.05; “**” represented p<0.01; “***” represented p<0.001; and “****” represented p<0.0001.
(§1) The concentration of Sample 1 was 10 μM, the concentration of Samples 2-9 was 20 μM, and the concentration of IsoA was 10 μg/mL. The measured value of the control without adding any sample was set to 100%, and other values were adjusted accordingly. […] The concentration of Sample 1 was 100 μM, the concentration of Samples 2-9 was 200 μM, and the concentration of IsoA was 100 μg/mL. The measured value of the control without adding any sample was set to 100%, and other values were adjusted accordingly.

For the next data set, the target named is T1, Aβ42 (Homo sapiens, UniProt P05067).
T1 construct: Aβ42 was redissloved in DMSO to 2.5 mg/mL
T1 sequence (P05067 672-713 limits assumed): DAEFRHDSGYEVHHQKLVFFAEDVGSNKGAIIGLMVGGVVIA
The data set can be described thus: Aβ42 aggregation, thioflavin T assay. The data set is classed as biochemical. As to conditions: for inhibition at 20 µM / inhibition at 200 µM: 30 minutes 37° C.; for inhibition at 20 µM: FIG. 4A; for inhibition at 200 µM: FIG. 4B; for inhibit Aβ42 accumulation (ThT assay): summary of Experimental example 4. How it is done: Experimental method: Aβ42 was redissloved in DMSO to 2.5 mg/mL, and Samples 1-9 were diluted with D-PBS to appropriate concentrations. The concentrations of Sample 1 were 10 μM and 100 μM, the concentrations of Sample 2-9 were 20 μM and 200 μM, and the concentrations of IsoA were 10 μg/mL and 100 μg/mL. Each reaction included 1 μL of Aβ42 (final concentration was 0.25 mg/mL) and 9 μL of the testing sample, which each concentration of each sample included 8 groups, and was placed at 37° C. reacting for 30 minutes after thoroughly mixed. 200 μL of Thioflavin T working solution was added and mixed thoroughly after the reaction completed, 200 μL of the which was placed into a black, clear bottom 96-well plate, and the ThT fluorescence intensity (Ex: 440 nm, Em: 482 nm) was measured to determine the level of Aβ42 aggregation. The value of not reacting with any sample (i.e. only containing 1 μL of Aβ42 and 9 μL of D-PBS, which the final concentration of Aβ42 was 0.25 mg/mL) was a control and set to 100%, and isoacteoside (IsoA) was used as a positive control. The values of the samples were compared to the control and expressed in percentage. The experiment results are shown in FIGS. 4A-4B, which show mean±standard error of eight experimental groups (n=8), and the statistical differences between the control and the testing samples were analyzed by Dunnett's multiple comparison test, which “*” represented p<0.05; “**” represented p<0.01; “***” represented p<0.001; and “****” represented p<0.0001.
as §1, with “μg/mL. The level of Aβ42 accumulation was measured by ThT assay, which the measured value” for “μg/mL. The measured value”

Data set [1] concerns Human retinal pigment epithelium cells (ARPE-19). Put plainly: Protection of ARPE-19 cells against tert-butyl hydroperoxide oxidative damage (MTT). The format is cell-based. As to conditions: 24 hours; for cell viability compared to the control / inhibition of human retinal pigment epithelium cell death: with tBHP, Sample 2 at 6.25, 12.5, 25 μM, Sample 8 at 8.75, 17.5, 35 μM, FIGS. 6A-6B. The method, then:
Human retinal pigment epithelium cells (ARPE-19) were incubated in a DMEM/F12 cell culture medium (Life Technologies) containing 10% of fetal bovine serum (FBS), and were passaged using a 96-well plate after the cell concentration reached 90% full, which each well was seeded with 4.5×10^3 cells. Next day, Samples 2 and 8 were diluted with dimethyl sulfoxide (DMSO) to about 200 times of test concentration, and after that, appropriate amount of DMEM/F12 cell culture medium containing 5% fetal bovine serum was added and diluted to twice test concentration. Then, the resultant was mixed with 0.2 mM of tert-butyl hydroperoxide (tBHP, Sigma) in equal proportions to reach the test concentration (containing 0.5% of dimethyl sulfoxide). The diluted sample was added to the plate with the cells, which was placed in an incubator reacted for 24 hours, and the cell viability was analyzed by MTT solution. The absorbance was measured at a wavelength of 570 nm, and the cells not being treated by the medicine was a control, and the average absorbance of which was set to 100%. The cell viability of the cells being treated by the medicine was calculate by the following formula based on the measured absorbance:
Cell viability=(absorbance of the experimental group/average absorbance of the control)×100%.
The experiment results are shown in FIGS. 6A-6B, which show mean±standard error of six experimental groups (n=6). The statistical differences between damaging group (i.e. accepting damaging medicine, and no protective medicine) and testing medicine groups and the control group (Control, containing 0.5% of DMSO) were analyzed by Dunnett's multiple comparison test, which “*” represented p<0.05; “**” represented p<0.01; “***” represented p<0.001; and “****” represented p<0.0001.

Data set [2] concerns Aβ40 in SH-SY5Y-APP695 cell medium. The data set can be described thus: Inhibiting Aβ40 accumulation in culture medium of SH-SY5Y-APP695 cells (Human Aβ1-40 immunoassay, with MTT). The note with it: for effects of inhibiting Aβ40 accumulation: preliminary screening at lower concentration (10 and 20 μM), 24 hours. The data set is classed as cell-based. The method, then:
Experimental method: Human neuroblastoma cell (SH-SY5Y-APP695), which expresses Swedish APP695 mutation, was incubated in a 3.5-cm culture dish until the cell concentration reached 90% full. When passage, each well of a 24-well plate was seeded with 4×10^5 cells. The culture medium was replaced with 300 μL of chemical-defined medium, which is a DMEM/F12 medium including 5 mM of Hepes buffer, 0.6% of glucose, 3 mM of NaHCO3, […], 100 μg/mL of transferrin, 20 nM of progesterone, 60 μM putrescine, 30 nM of sodium selenite, and 2 μg/mL of heparin, the next day. 3 μL of the testing sample was added into each well, and each concentration of each sample included 4 groups. After the cells were placed in an incubator (37° C., 5% CO2) and treated with the samples for 24 hours, the culture medium was collected and analyzed the amount of Aβ40 in the culture medium after treated by the samples through Human Aβ1-40 Immunoassay kits (Cat.KHB3482, Life Technologies). The cells treated by the samples were analyzed by MTT assay to evaluate the toxicity to the cells caused by sample treatment.
The testing concentrations of Sample 1 were 5 μM and 10 μM, and the testing concentrations of Samples 2-8 were 10 μM and 20 μM. The amount of Aβ40 in a SH-SY5Y-APP695 cell medium that there was no sample added as a control and set to 100%, and the amounts of Aβ40 in the medium after respectively treated by the testing samples were compared to the control and expressed in percentage. β-secretase inhibitor (β-SI) was used as a positive control. The experiment results are shown in FIGS. 1A-1D, which FIGS. 1A and 1C are result diagrams of the samples in inhibiting Aβ40 accumulation, and FIGS. 1B and 1D are result diagrams of the cell viability after treated by the samples. The results shown in FIGS. 1A-1D are mean±standard error of four experimental groups (n=4), and the statistical differences between the control and the testing samples were analyzed by Dunnett's multiple comparison test, which “*” represented p<0.05; “**” represented p<0.01; “***” represented p<0.001; and “****” represented p<0.0001.
Based on the experiment results of Experimental example 1, Sample 3, 4, and 6 having efficacy of inhibiting Aβ40 accumulation were selected. The testing concentrations of the samples were increased to 20, 50, and 100 μM, and were experimented using the method of Experimental example 1. FIG. 2A is a result diagram of the samples in inhibiting Aβ40 accumulation, and FIG. 2B is a result diagram of the cell viability after treated by the samples. The results shown in FIGS. 2A-2B are mean±standard error of four experimental groups (n=4), and the statistical differences between the control and the testing samples were analyzed by Dunnett's multiple comparison test, which “*” represented p<0.05; “**” represented p<0.01; “***” represented p<0.001; and “****” represented p<0.0001.

Where [3] appears, read: summary of Experimental examples 1 and 2.

The record followed here is patent US20150291645A1, “ISOACTEOSIDE DERIVATIVE AND USE THEREOF” (Sinphar Pharmaceutical Co., Ltd., priority 2014, published 2015).

As a reminder, the inhibition is the drop in the measured response relative to a control, in per cent. A low value points to little suppression.

Chain of Aβ40 (P05067 672-711 limits assumed): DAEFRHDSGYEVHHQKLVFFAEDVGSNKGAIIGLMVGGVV

With `CC(=O)Oc1ccc(/C=C/C(=O)OCC2OC(OCCc3ccc(Cl)cc3)C(OC(C)=O)C(OC(C)=O)C2OC(C)=O)cc1OC(C)=O` (centres unmarked) [Sample 2], on Aβ40, the inhibition at 20 µM was around 20%, the inhibition at 200 µM is around 20% and the “inhibit Aβ40 accumulation (ThT assay)” value is reported as “could effectively inhibit”. For the same molecule, on Aβ42, the inhibition at 20 µM is around 20%, the inhibition at 200 µM is around 40% and the “inhibit Aβ42 accumulation (ThT assay)” value is given as “could effectively inhibit”. In addition, in data set [1], the “cell viability compared to the control” value is on record as “even better then the control” and the “inhibition of human retinal pigment epithelium cell death” value is given as “could be significantly inhibited”.
In data set [2] (Homo sapiens, 20 μM, condition of not affecting the cytotoxicity, FIGS. 2A-2B), `O=C(/C=C/c1ccc(OCc2ccccc2)c(OCc2ccccc2)c1)OCC1OC(OCCc2ccccc2)C(O)C(O)C1O` (centres unmarked) [Sample 3] showed an inhibition at 20 µM of around 20%. In addition, the “effects of inhibiting Aβ40 accumulation” value in data set [2] (FIGS. 1A-1D) is given as “had effects of inhibiting Aβ40 accumulation”. Moreover, the “comparison among samples, inhibiting Aβ40 accumulation” value in data set [2] (preliminary screening, FIGS. 1A-1D) is reported as “had the best result of inhibiting Aβ40 accumulation”. Also, the “inhibit Aβ40 formation in cell” value in data set [2] (setting [3]) is listed as “could inhibit Aβ40 formation in cell”.
As to `O=C(/C=C/c1ccc(O)c(O)c1)OCC1OC(OCCc2ccccc2)C(O)C(O)C1O` (centres unmarked) [Sample 4], the “effect of increasing the sample concentration on inhibiting Aβ accumulation” value in data set [2] (20, 50 and 100 μM, FIGS. 2A-2B) is “could not further enhance the efficacy of inhibiting Aβ accumulation”. Also, the “effects of inhibiting Aβ40 accumulation” value in data set [2] (FIGS. 1A-1D) is recorded as “had effects of inhibiting Aβ40 accumulation”. Besides, the “inhibit Aβ40 formation in cell” value in data set [2] (setting [3]) was “could inhibit Aβ40 formation in cell”. Besides, at Aβ40, the inhibition at 20 µM was around 30%, the inhibition at 200 µM is around 20% and the “inhibit Aβ40 accumulation (ThT assay)” value is recorded as “could effectively inhibit”. Moreover, at Aβ42, the inhibition at 20 µM is around 50%, the inhibition at 200 µM was around 70% and the “inhibit Aβ42 accumulation (ThT assay)” value is given as “could effectively inhibit”.
With `O=C(/C=C/c1ccc(OCc2ccccc2)c(OCc2ccccc2)c1)OCC1OC(OCCc2cccc(OCc3ccccc3)c2)C(O)C(O)C1O` (centres unmarked) [Sample 6], in data set [2] (Homo sapiens, 50 μM, condition of not affecting the cytotoxicity, FIGS. 2A-2B), the inhibition at 50 µM is around 40%. The “effects of inhibiting Aβ40 accumulation” value in data set [2] (FIGS. 1A-1D) was “had effects of inhibiting Aβ40 accumulation”. Besides, in data set [2] (setting [3]), the “comparison among samples, Aβ40 formation in cell” value is given as “had the best result” and the “inhibit Aβ40 formation in cell” value is “could inhibit Aβ40 formation in cell”.
For the molecule `O=C(/C=C/c1ccc(O)c(O)c1)OCC1OC(OCCc2ccc(OCc3ccccc3)cc2)C(O)C(O)C1O` (centres unmarked) [Sample 8], on Aβ40, the inhibition at 20 µM is around 30%, the inhibition at 200 µM is at most 70% and the “inhibit Aβ40 accumulation (ThT assay)” value is reported as “could effectively inhibit”. For the same molecule, at Aβ40 (summary), the “comparison among samples, Aβ40 accumulation (ThT assay)” value is “had the best result”. Also, at Aβ42, the inhibition at 20 µM was around 60% and the “inhibit Aβ42 accumulation (ThT assay)” value is “could effectively inhibit”. The “comparison among samples, Aβ42 accumulation (ThT assay)” value on Aβ42 (summary) is listed as “had the best result”. Also, in data set [1], the “cell viability compared to the control” value was “even better then the control” and the “inhibition of human retinal pigment epithelium cell death” value is listed as “could be significantly inhibited”.
Take `CC(C)(C)OO` [tBHP, tert-butyl hydroperoxide, reference compound]: in data set [1] (tBHP alone (0.2 mM mixed in equal proportions)), the cell death was 30%-40%.
